Assay results taken from patent US20120220577A1, “GLYCINE B ANTAGONISTS” (Merz Pharma GmbH & Co KgaA, priority 2009, published 2012).
Structures can show the parent of a compound that is named as a salt.

Columns and labels:
[1] = biological target: T1, glycine binding pocket of the NMDA receptor (Rattus norvegicus, UniProt P35439); assay: [3H]MDL-105,519 displacement studies (rat cortical membranes); details: displacement of 2 nM [3H]-MDL-105,519, rat cortical membranes; read-out: NMDA-MDL 105519-r-CTX - IC50
T1 construct: For isolation of the cell membranes, the cortices are homogenized; from tissue; host or cells: rat cerebral cortex membranes (male Sprague-Dawley)
Procedure: Anaesthetised male Sprague-Dawley rats (200-250 g, Janvier, Le Genest-Isle, France) are decapitated and their brains removed rapidly. […] For isolation of the cell membranes, the cortices are homogenized in 20 volumes of ice-cold 0.32 M sucrose (Sigma-Aldrich, Taufkirchen, Germany) using a glass-Teflon homogenizer. The homogenate is centrifuged at 1000×g for 10 minutes, the pellet is discarded and the supernatant centrifuged at 20,000×g for 20 minutes. The resulting pellet is re-suspended in 20 volumes of distilled water and centrifuged for 20 minutes at 8000×g. The supernatant and the buffy coat are then centrifuged three times (48,000×g for 20 minutes) in the presence of 50 mM Tris-HCl, pH 8.0 (assay buffer). All centrifugation steps are carried out at 4° C. After resuspension in 5 volumes of 50 mM Tris-HCl, pH 7.5, the membrane suspension is frozen rapidly at −80° C. On the day of assay, the membranes are thawed and washed four times by resuspension in 50 mM Tris-HCl, pH 7.5, and centrifugation at 48,000×g for 20 minutes. The final pellet is suspended in assay buffer. […] The final protein concentration used for our studies is 400 μg/ml.
A robotic system designed for binding assays (Tecan Deutschland GmbH, Crailsheim, Germany) is loaded with the membrane solution, solutions for bound control (buffer/DMSO 20%), unlabeled glycine (1 mM) for evaluation of non-specific binding, all compounds to be tested (at 20-fold concentrations), radioligand and respective 96-well plates.
The protein/receptor concentration is held constant whereas the amount of specific bound radioligand is determined using increasing concentrations of ligand.
Firstly, the assay plates are loaded with membrane solution and are shaken at 4° C. The mother plates are then prepared by pipetting the compounds into assay buffer/20% DMSO to obtain the desired final concentrations (dose response curve with five different concentrations, e.g. 10, 3, 1, 0.3, and 0.1 μM). After transferring radioligand into the assay plates, the compounds are added (including the bound and the non-specific binding control). The final DMSO concentration is 1%. The assay plates are incubated and shaken at 4° C. for 1 h, before the mixture is exhausted as rapidly as possible via a vacuum manifold using the Multiscreen HTS glass fibre (type B) filter plates (Millipore, Schwalbach, Germany) under a constant vacuum of 450 mbar. The membranes are washed four times with cold assay buffer ([…]). 50 μL of Ultima Gold scintillation cocktail (PerkinElmer, Rodgau-Jügesheim, Germany) is added to the wet filter plates and incubated at room temperature overnight before counting the disintegration per minutes using a liquid scintillation counter (MicroBeta, PerkinElmer, Rodgau-Jügesheim, Germany).
The residual radioactivity after displacement of the test compound (n=5) is then corrected with respect to the set controls.

[2] = biological target: NMDA receptor glycine B site (Rattus norvegicus, UniProt P35439); assay: Calcium FLIPR studies, rat cortical neurons (NMDA/D-Serine induced intracellular calcium); type: cell-based; design: Primary neurons are prepared from cortices of embryonal rats at day 17 of pregnancy; endogenous in cells; host or cells: primary rat cortical neurons (E17, 11-13 DIV); details: rat cortical neurons; stimulation with 30 μM NMDA and 1 μM D-Serine; antagonist pre-incubated 10 min; read-out: NMDA-FLIPR-rCTX-NAM - IC50
Procedure: Antagonistic potencies of the test compounds are functionally evaluated using electrophysiological whole cell patch-clamp recordings and/or fluorometric intracellular Ca^2+-imaging (FLIPR) screens.
Sprague-Dawley rat embryos (E 17) are decapitated and neocortices are dissected, trypsinized and carefully triturated. The cell suspension is plated on poly-D-lysine pre-coated 96-well Plates (Greiner, Frickenhausen, Germany) at a cell density of 55.000 cells/well. The neurons are cultivated in Neurobasal media containing B27-Supplement and […] L-Glutamine (Biochrom) at 37° C. in a humidified atmosphere of 5% CO2/95% air. Medium is exchanged completely at day 4 and to 50% on day 7. At the time of experiments neurons are 11-13 days in vitro.
The increase of intracellular calcium after stimulation with 30 μM NMDA and 1 μM D-Serine is measured using the fluorometric imaging plate reader (FLIPR) and the Calcium-4-Kit (both Molecular Devices, Ismaning, Germany). Prior to addition of agonist or antagonist (5 different concentrations, n=5) the medium is aspirated and cells are washed once before loading with 150 μL of loading buffer (1 h at room temperature), consisting of Ca-4 sensitive dye reconstituted in extracellular bath solution, pH 7.3. Subsequently, plates are transferred to FLIPR to detect increases in intracellular calcium after the addition of agonist, measured as relative fluorescence units (RFU). Antagonists are pre-incubated with the cells for 10 min at room temperature before the addition of the agonist and co-agonist.
The fluorescence signal increase after addition of agonist reflects the increase of intracellular calcium. Inconsistencies in the amount of cells per well are normalised by using the spatial uniformity correction of the FLIPR software (Screenworks, Molecular Devices). The mean of replicated temporal data (n=5) is calculated and used for graphical representation. For the evaluation of the antagonistic potency, the calcium changes in response to different concentrations of antagonist are determined using an area under the curve (AUC) calculation. All responses (RFU-values) are determined as percentage of control (=maximum response at 30 μM NMDA and 1 μM D-Serine). IC50 values are calculated according the four parameter logistic equation using GraFit (Erithacus Software).

| SMILES | melting point | IC50 [1] [nM] | IC50 [2] [nM] |
| --- | --- | --- | --- |
| CNC(=O)COc1cc(CN)ccc1NC(=O)COc1cc(C(=O)O)cc2cc(Cl)cc(Cl)c12 (as salt: hydrochloride) [Example 116, 4-[(4-Aminomethyl-2-methylcarbamoylmethoxy-phenylcarbamoyl)-methoxy]-5,7-dichloro-naphthalene-2-carboxylic acid] | 233 to 235 °C | – | – |
| NCc1cc(OCC(=O)O)ccc1NC(=O)COc1cc(C(=O)O)cc2cc(Cl)cc(Cl)c12 (as salt: trifluoroacetate) [Example 97, 4-[(2-Aminomethyl-4-carboxymethoxy-phenylcarbamoyl)-methoxy]-5,7-dichloro-naphthalene-2-carboxylic acid] | > 169 °C | – | – |
| O=C(COc1cc(C(=O)O)cc2cc(Cl)cc(Cl)c12)Nc1cccc(Cc2nnn[nH]2)c1 [Example 90, 5,7-Dichloro-4-{[3-(1H-tetrazol-5-ylmethyl)-phenylcarbamoyl]-methoxy}naphthalene-2-carboxylic acid] | – | 550 | 2680 |
| CNC(=O)COc1ccccc1NC(=O)COc1cc(C(=O)O)cc2cc(Cl)cc(Cl)c12 [Example 91, 5,7-Dichloro-4-[(2-methylcarbamoylmethoxy-phenylcarbamoyl)-methoxy]-naphthalene-2-carboxylic acid] | – | 1270 | 10800 |
| O=C(COc1cc(C(=O)O)cc2cc(Cl)cc(Cl)c12)Nc1cccc(OCc2nnn[nH]2)c1 [Example 92, 5,7-Dichloro-4-{[3-(1H-tetrazol-5-ylmethoxy)-phenylcarbamoyl]-methoxy}-naphthalene-2-carboxylic acid] | – | 656 | 3840 |
| NC(=O)COc1ccccc1NC(=O)COc1cc(C(=O)O)cc2cc(Cl)cc(Cl)c12 [Example 95, 4-[(2-Carbamoylmethoxy-phenylcarbamoyl)-methoxy]-5,7-dichloro-naphthalene-2-carboxylic acid] | – | 641 | 7170 |
| O=C(O)c1cc(OCC(=O)N2c3ccccc3CC2c2nnn[nH]2)c2c(Cl)cc(Cl)cc2c1 (stereo not shown) [Example 99, 5,7-Dichloro-4-{2-oxo-2-[2-(1H-tetrazol-5-yl)-2,3-dihydro-indol-1-yl]-ethoxy}-naphthalene-2-carboxylic acid] | – | 909 | 5950 |
| O=C(COc1cc(C(=O)O)cc2cc(Cl)cc(Cl)c12)Nc1ccccc1Cc1nnn[nH]1 [Example 100, 5,7-Dichloro-4-{[2-(1H-tetrazol-5-ylmethyl)-phenylcarbamoyl]-methoxy}-naphthalene-2-carboxylic acid] | – | 559 | 4100 |
| O=C(COc1cc(C(=O)O)cc2cc(Cl)cc(Cl)c12)Nc1cccc(-c2nnn[nH]2)c1 [Example 101, 5,7-Dichloro-4-{[3-(1H-tetrazol-5-yl)-phenylcarbamoyl]-methoxy}-naphthalene-2-carboxylic acid] | – | 344 | 2270 |
| O=C(COc1cc(C(=O)O)cc2cc(Cl)cc(Cl)c12)NCc1cccnc1 [Example 104, 5,7-Dichloro-4-{[(pyridin-3-ylmethyl)-carbamoyl]-methoxy}-naphthalene-2-carboxylic acid] | – | 186 | 1390 |
| O=C(COc1cc(C(=O)O)cc2cc(Cl)cc(Cl)c12)NCc1ccncc1 [Example 105, 5,7-Dichloro-4-{[(pyridin-4-ylmethyl)-carbamoyl]-methoxy}-naphthalene-2-carboxylic acid] | – | 1030 | 7090 |
| O=C(COc1cc(C(=O)O)cc2cc(Cl)cc(Cl)c12)NCc1cccc(-c2nnn[nH]2)c1 [Example 107, 5,7-Dichloro-4-{[3-(1H-tetrazol-5-yl)-benzylcarbamoyl]-methoxy}-naphthalene-2-carboxylic acid] | – | 139 | 1440 |
| O=C(COc1cc(C(=O)O)cc2cc(Cl)cc(Cl)c12)NCc1ccccc1Cc1nnn[nH]1 [Example 118, 5,7-Dichloro-4-{[2-(1H-tetrazol-5-ylmethyl)-benzylcarbamoyl]-methoxy}-naphthalene-2-carboxylic acid] | 239 to 240 °C | – | – |
| O=C(COc1cc(C(=O)O)cc2cc(Cl)cc(Cl)c12)NCc1cccc(Cc2nnn[nH]2)c1 [Example 119, 5,7-Dichloro-4-{[3-(1H-tetrazol-5-ylmethyl)-benzylcarbamoyl]-methoxy}-naphthalene-2-carboxylic acid] | 243 to 244 °C | – | – |
| O=C(COc1cc(C(=O)O)cc2cc(Cl)cc(Cl)c12)NCc1ccc(Cc2nnn[nH]2)cc1 [Example 120, 5,7-Dichloro-4-{[4-(1H-tetrazol-5-ylmethyl)-benzylcarbamoyl]-methoxy}-naphthalene-2-carboxylic acid] | 247 to 248 °C | – | – |

Results, then the molecule that gave them:

| melting point | IC50 [1] [nM] | IC50 [2] [nM] | SMILES |
| --- | --- | --- | --- |
| 244 to 245 °C | – | – | O=C(O)COc1cc(CO)ccc1NC(=O)COc1cc(C(=O)O)cc2cc(Cl)cc(Cl)c12 [Example 122, 4-[(2-Carboxymethoxy-4-hydroxymethyl-phenylcarbamoyl)-methoxy]-5,7-dichloro-naphthalene-2-carboxylic acid] |
| > 236 °C (dec.) | – | – | O=C(COc1cc(C(=O)O)cc2cc(Cl)cc(Cl)c12)NCc1ccc(OCc2nnn[nH]2)cc1 [Example 126, 5,7-Dichloro-4-{[4-(1H-tetrazol-5-ylmethoxy)-benzylcarbamoyl]-methoxy}-naphthalene-2-carboxylic acid] |
| 224 to 225 °C | – | – | COCC(Oc1cc(C(=O)O)cc2cc(Cl)cc(Cl)c12)C(=O)Nc1ccccc1OCC(=O)O (stereo not shown) [Example 131, 4-[1-(2-Carboxymethoxy-phenylcarbamoyl)-2-methoxy-ethoxy]-5,7-dichloro-naphthalene-2-carboxylic acid] |
| 242 to 243 °C | – | – | CN1CCc2sc(NC(=O)COc3cc(C(=O)O)cc4cc(Cl)cc(Cl)c34)nc2C1 [Example 132, 5,7-Dichloro-4-[(5-methyl-4,5,6,7-tetrahydro-thiazolo[4,5-c]pyridin-2-ylcarbamoyl)-methoxy]-naphthalene-2-carboxylic acid] |
| > 250 °C | – | – | Cc1cnc(NC(=O)COc2cc(C(=O)O)cc3cc(Cl)cc(Cl)c23)s1 [Example 133, 5,7-Dichloro-4-[(5-methyl-thiazol-2-ylcarbamoyl)-methoxy]-naphthalene-2-carboxylic acid] |
| 217 to 218 °C | – | – | O=C(COc1ccccc1NC(=O)COc1cc(C(=O)O)cc2cc(Cl)cc(Cl)c12)NCCO [Example 134, 5,7-Dichloro-4-({2-[(2-hydroxy-ethylcarbamoyl)-methoxy]-phenylcarbamoyl}-methoxy)-naphthalene-2-carboxylic acid] |
